From patent US20230242473A1, “THYROMIMETICS” (Autobahn Therapeutics, Inc., priority 2020, published 2023)
pEC50: −log10 of the molar value. Each block holds one compound with its values, some of them ahead of it.

What was measured:
TRα = biological target: T1, TRα (Homo sapiens, UniProt P10827); experiment: Thyroid-hormone reporter-gene assay, TRα (Gal4 hybrid, luciferase); format: cell-based; conditions: HEK293-derived reporter cells, 24 hr treatment, luciferase readout
T1 construct: expressed in transfected cells; host or cells: HEK293-derived reporter cell line
T1 sequence (P10827 128-410 isoform P10827-2 limits assumed): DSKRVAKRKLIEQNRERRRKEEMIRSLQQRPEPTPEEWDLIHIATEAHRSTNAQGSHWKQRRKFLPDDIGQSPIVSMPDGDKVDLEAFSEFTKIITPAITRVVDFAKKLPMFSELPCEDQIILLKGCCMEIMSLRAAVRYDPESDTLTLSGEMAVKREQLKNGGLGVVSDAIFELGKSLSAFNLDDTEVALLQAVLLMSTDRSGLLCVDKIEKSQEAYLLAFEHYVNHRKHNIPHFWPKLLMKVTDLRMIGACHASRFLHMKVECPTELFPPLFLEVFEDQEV
Procedure: (§1) Compounds were tested for thyroid-hormone receptor activity using TR reporter-gene assays. Reporter cells used in the assays express a TR-receptor hybrid (either TRα or TRO) in which the native N-terminal DNA binding domain (DBD) has been replaced with that of the yeast Gal4 DBD. The reporter gene, firefly luciferase, is functionally linked to the Gal4 upstream activation sequence (UAS). Both cell lines were derived from human embryonic kidney (HEK293).
(§2) Step 1: A suspension of reporter cells was prepared in cell recovery medium containing 10% charcoal-stripped FBS, and dispensed into assay plates. The plates were pre-incubated for 6 hours in a cell culture incubator (37° C./5% CO2/85% humidity).
(§3) These intermediate stocks were subsequently diluted directly into compound screening medium containing 10% charcoal-stripped FBS to generate “2×-concentration” treatment media (containing 0.2, 0.4 or 0.8% DMSO).
(§4) Step 3: At the end of the pre-incubation period, culture media were discarded from the assay plates, and all wells received 100 μl of compound screening medium. 100 μl of each of the previously prepared “2×-concentration” treatment media were dispensed into duplicate assay wells, thereby achieving the desired final treatment concentrations. The final concentration of DMSO in all assay wells was 0.1, 0.2 or 0.4%. Assay plates were incubated for 24 hr in a cell culture incubator (37° C./5% CO2/85% humidity).
(§5) Step 4: At the 24 h assay endpoint, treatment media were discarded and 100 µl/well of luciferase detection reagent was added. Relative luminometer units (RLUs) were quantified from each assay well.

TRβ = biological target: T2, TRβ (Homo sapiens, UniProt P10828); experiment: Thyroid-hormone reporter-gene assay, TRβ (Gal4 hybrid, luciferase); format: cell-based; conditions: for pEC50: HEK293-derived reporter cells, 24 hr treatment, luciferase readout; for T3-SI, selectivity index (SI) calculated as EC50 (TRα)/EC50 (TRβ): TRα vs TRβ reporter-gene assays
T2 construct: expressed in transfected cells; host or cells: HEK293-derived reporter cell line
T2 sequence (P10828 217-461 limits assumed): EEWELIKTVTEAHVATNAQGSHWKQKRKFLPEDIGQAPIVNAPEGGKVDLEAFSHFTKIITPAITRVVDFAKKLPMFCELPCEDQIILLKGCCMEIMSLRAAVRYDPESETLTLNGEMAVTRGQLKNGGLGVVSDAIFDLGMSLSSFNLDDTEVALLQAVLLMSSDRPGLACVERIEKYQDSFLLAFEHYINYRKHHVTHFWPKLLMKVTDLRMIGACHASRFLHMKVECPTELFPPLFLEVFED
Procedure: as §1, §2, §3, §4, §5

- pEC50 (TRα): < 6.00
- pEC50 (TRβ): < 6.00
- T3-SI, selectivity index (SI) calculated as EC50 (TRα)/EC50 (TRβ) (TRβ): ++ (++3X<T3−SI≤30X)
Compound: CC(C)c1c(O)ccc(Cc2ccc(OCC(=O)O)c(F)c2C(C)C)c1F [Compound 31, 2-(2-fluoro-4-(2-fluoro-4-hydroxy-3-isopropylbenzyl)-3-isopropylphenoxy)acetic acid]

- pEC50 (TRα): 6.00 to 7.00
- pEC50 (TRβ): 7.00 to 8.00
- T3-SI, selectivity index (SI) calculated as EC50 (TRα)/EC50 (TRβ) (TRβ): ++ (++3X<T3−SI≤30X)
Compound: Cc1cc(OCC(=O)O)c2c(c1Cc1ccc(O)c(C(C)C)c1)CCC2 [Compound 6, 2-((7-(4-hydroxy-3-isopropylbenzyl)-6-methyl-2,3-dihydro-1H-inden-4-yl)oxy)acetic acid]

- pEC50 (TRα): < 6.00
- pEC50 (TRβ): 6.00 to 7.00
- T3-SI, selectivity index (SI) calculated as EC50 (TRα)/EC50 (TRβ) (TRβ): ++ (++3X<T3−SI≤30X)
Compound: C=C(C)c1cc(OCC(=O)O)ccc1Cc1ccc(O)c(C(C)C)c1F [Compound 23, 2-(4-(2-fluoro-4-hydroxy-3-isopropylbenzyl)-3-(prop-1-en-2-yl)phenoxy)acetic acid]

- pEC50 (TRα): < 6.00
- pEC50 (TRβ): < 6.00
- T3-SI, selectivity index (SI) calculated as EC50 (TRα)/EC50 (TRβ) (TRβ): ++ (++3X<T3−SI≤30X)
Compound: CC(C)c1cc(Cc2cc(F)c(OCC(=O)O)c3c2CCC3)ccc1O [Compound 16, 2-((5-fluoro-7-(4-hydroxy-3-isopropylbenzyl)-2,3-dihydro-1H-inden-4-yl)oxy)acetic acid]

- pEC50 (TRα): 6.00 to 7.00
- pEC50 (TRβ): 6.00 to 7.00
- T3-SI, selectivity index (SI) calculated as EC50 (TRα)/EC50 (TRβ) (TRβ): ++ (++3X<T3−SI≤30X)
Compound: CC(C)c1cc(Cc2cc(F)c(OCC(=O)O)cc2C(C)C)ccc1O [Compound 36, 2-(2-fluoro-4-(4-hydroxy-3-isopropylbenzyl)-5-isopropylphenoxy)acetic acid]

- pEC50 (TRα): < 6.00
- pEC50 (TRβ): 6.00 to 7.00
- T3-SI, selectivity index (SI) calculated as EC50 (TRα)/EC50 (TRβ) (TRβ): ++ (++3X<T3−SI≤30X)
Compound: CC(C)c1cc(Cc2ccc(OCC(=O)O)c3ccccc23)ccc1O [Compound 14, 2-((4-(4-hydroxy-3-isopropylbenzyl)naphthalen-1-yl)oxy)acetic acid]

- pEC50 (TRα): < 6.00
- pEC50 (TRβ): < 6.00
Compound: CC(C)c1c(O)ccc(Cc2ccc(OCC(=O)O)c(F)c2Cl)c1F [Compound 27, 2-(3-chloro-2-fluoro-4-(2-fluoro-4-hydroxy-3-isopropylbenzyl)phenoxy)acetic acid]

- pEC50 (TRα): 7.00 to 8.00
- pEC50 (TRβ): > 8.00
- T3-SI, selectivity index (SI) calculated as EC50 (TRα)/EC50 (TRβ) (TRβ): ++ (++3X<T3−SI≤30X)
Compound: Cc1cc(OCC(=O)O)c2c(c1Cc1ccc(O)c(C(C)c3ccc(F)cc3)c1)CCC2 (centres unmarked) [Compound 8, 2-((7-(3-(1-(4-fluorophenyl)ethyl)-4-hydroxybenzyl)-6-methyl-2,3-dihydro-1H-inden-4-yl)oxy)acetic acid]

Further lines, the compound ahead of its results:

Compound: CC(C)c1c(O)ccc(Cc2ccc(OCC(=O)O)cc2Cl)c1F [Compound 20, 2-(3-chloro-4-(2-fluoro-4-hydroxy-3-isopropylbenzyl)phenoxy)acetic acid]
- pEC50 (TRα): < 6.00
- pEC50 (TRβ): 6.00 to 7.00
- T3-SI, selectivity index (SI) calculated as EC50 (TRα)/EC50 (TRβ) (TRβ): ++ (++3X<T3−SI≤30X)

Compound: CC(C)c1c(O)ccc(Cc2cc(F)c(OCC(=O)O)cc2Cl)c1F [Compound 29, 2-(5-chloro-2-fluoro-4-(2-fluoro-4-hydroxy-3-isopropylbenzyl)phenoxy)acetic acid]
- pEC50 (TRα): < 6.00
- pEC50 (TRβ): 6.00 to 7.00
- T3-SI, selectivity index (SI) calculated as EC50 (TRα)/EC50 (TRβ) (TRβ): +++ (+++T3−SI>30X)

Compound: CC(C)c1c(O)ccc(Cc2ccc(OCC(=O)O)c3c2C(C)CC3)c1F (centres unmarked) [Compound 4, 2-((7-(2-fluoro-4-hydroxy-3-isopropylbenzyl)-1-methyl-2,3-dihydro-1H-inden-4-yl)oxy)acetic acid]
- pEC50 (TRα): < 6.00
- pEC50 (TRβ): < 6.00

Compound: Cc1cc(OCC(=O)O)c2c(c1Cc1ccc(O)c(C(C)C)c1F)CCC2 [Compound 10, 2-((7-(2-fluoro-4-hydroxy-3-isopropylbenzyl)-6-methyl-2,3-dihydro-1H-inden-4-yl)oxy)acetic acid]
- pEC50 (TRα): 7.00 to 8.00
- pEC50 (TRβ): > 8.00
- T3-SI, selectivity index (SI) calculated as EC50 (TRα)/EC50 (TRβ) (TRβ): ++ (++3X<T3−SI≤30X)

Compound: CC(C)c1c(O)ccc(Cc2ccc(OCC(=O)O)c3c2CCC3)c1F [Compound 2, 2-((7-(2-fluoro-4-hydroxy-3-isopropylbenzyl)-2,3-dihydro-1H-inden-4-yl)oxy)acetic acid]
- pEC50 (TRα): < 6.00
- pEC50 (TRβ): 6.00 to 7.00
- T3-SI, selectivity index (SI) calculated as EC50 (TRα)/EC50 (TRβ) (TRβ): ++ (++3X<T3−SI≤30X)

Compound: CC(C)c1cc(Cc2cc(F)c(OCC(=O)O)c(F)c2Cl)ccc1O [Compound 38, 2-(3-chloro-2,6-difluoro-4-(4-hydroxy-3-isopropylbenzyl)phenoxy)acetic acid]
- pEC50 (TRβ): < 6.00

Compound: CC(C)c1cc(Cc2cc(F)c(OCC(=O)O)cc2C(F)(F)F)ccc1O [Compound 18, 2-(2-fluoro-4-(4-hydroxy-3-isopropylbenzyl)-5-(trifluoromethyl)phenoxy)acetic acid]
- pEC50 (TRα): < 6.00
- pEC50 (TRβ): < 6.00
- T3-SI, selectivity index (SI) calculated as EC50 (TRα)/EC50 (TRβ) (TRβ): + (+T3−SI≤3X)

Compound: CC(C)c1cc(OCC(=O)O)ccc1Cc1ccc(O)c(C(C)C)c1F [Compound 25, 2-(4-(2-fluoro-4-hydroxy-3-isopropylbenzyl)-3-isopropylphenoxy)acetic acid]
- pEC50 (TRα): 6.00 to 7.00
- pEC50 (TRβ): 7.00 to 8.00
- T3-SI, selectivity index (SI) calculated as EC50 (TRα)/EC50 (TRβ) (TRβ): ++ (++3X<T3−SI≤30X)
